Data published in US11826430B2, “Anti-cancer nuclear hormone receptor-targeting compounds” (Nuvation Bio Inc., priority 2019, dated 2023).

Assays:
HT-29 cells = experiment: Cell proliferation assay, CellTiter Glo; type: cell-based; settings: Homo sapiens, HT-29, 72 h; cell growth inhibition, three days of treatment
Description: (§1) a. […] IC50s were determined using 8 concentrations/compound. […] Ki=IC50/(1+[L]/Kd) c.
(§2) Cells were plated at varying density in the respective growth medium in 96 well plates. 24 hr later, cells were treated, in triplicate or quadruplicate, with test articles prepared in a range of concentrations by series dilution of DMSO stock solutions in growth medium and incubated for three to seven days. The number of viable 22RV1 and HT-29 cells was measured using CellTiter Glo assay (CTG, Promega, Madison, WI) after three days of treatment. Cell viability data were plotted using GraphPad Prism (GraphPad Software, Inc., San Diego, CA). In addition, a nonlinear regression model with a sigmoidal dose response and variable slope within GraphPad Prism was used to calculate the IC50 value of individual test articles.

22RV1 cells = experiment: Cell proliferation assay, CellTiter Glo; type: cell-based; settings: Homo sapiens, 22Rv1, 72 h; cell growth inhibition, three days of treatment
Description: as §1, §2

Human recombinant PARP2 = Human recombinant PARP2 (Homo sapiens (Human), UniProt Q9UGN5); experiment: RBC HotSpot PARP2 radioisotope-based filter binding assay; settings: read-out: PARP2 IC50; 2.5 nM PARP2, histone H3, 10 μM 32P-NAD+
Human recombinant PARP2, sequence (Q9UGN5 whole entry): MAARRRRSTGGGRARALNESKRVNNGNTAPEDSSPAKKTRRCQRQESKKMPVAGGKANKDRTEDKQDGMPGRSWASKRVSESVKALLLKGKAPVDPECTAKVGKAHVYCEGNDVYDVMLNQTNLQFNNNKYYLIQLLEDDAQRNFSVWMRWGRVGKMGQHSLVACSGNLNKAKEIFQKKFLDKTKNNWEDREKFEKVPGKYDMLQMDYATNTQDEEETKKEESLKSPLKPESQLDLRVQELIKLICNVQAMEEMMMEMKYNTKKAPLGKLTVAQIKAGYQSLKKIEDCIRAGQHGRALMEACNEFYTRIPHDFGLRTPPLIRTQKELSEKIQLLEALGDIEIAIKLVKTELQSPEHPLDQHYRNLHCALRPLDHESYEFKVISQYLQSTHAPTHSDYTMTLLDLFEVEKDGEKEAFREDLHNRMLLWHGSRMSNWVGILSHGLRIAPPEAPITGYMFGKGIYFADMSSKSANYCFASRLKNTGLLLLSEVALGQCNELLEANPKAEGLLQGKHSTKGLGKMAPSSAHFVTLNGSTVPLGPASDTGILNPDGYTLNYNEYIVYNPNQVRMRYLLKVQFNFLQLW
Description: (§3) RBC HotSpot Poly(ADP-ribose) Polymerases 1 (PARP1) and Poly(ADP-ribose) Polymerases 2 (PARP2) Assays: The assay was conducted at Reaction Biology Corporation (RBC; Malvern, PA). The assay principle is radioisotope-based filter binding assay where incorporation of radioisotope-labeled NAD^+ into the substrate captured on filter is detected after washout free NAD^+. Data were analyzed using Excel and GraphPad Prism software for IC50 curve fits. Each assay was conducted with PJ34 as a positive control. PARP1 assay: Human recombinant PARP1 at a final concentration of 2.5 nM was combined with histone H4 (20 μM) and test articles at various concentrations in reaction buffer (50 mM Tris-HCL, pH 8.0, 50 mM NaCl, 10 mM MgCl2, 1 mM DTT, 1% DMSO, and 20 μg/mL activated DNA). The solution was inoculated for 20 min at room temperature and the reaction initiated by adding [adenylate-^32P]-Nicotinamide Adenine Dinucleotide, ^32P-NAD^+ at a final concentration of 10 μM. After incubation for 2 hrs at room temperature, the reaction mixture was filtered and washed with 0.75% phosphoric acid for radioactivity detection. • ii. PARP2 assay: Human recombinant PARP2 at a final concentration of 2.5 nM was combined with histone H3 (20 μM) and test articles at various concentrations in reaction buffer (50 mM Tris-HCL, pH 8.0, 50 mM NaCl, 10 mM MgCl2, 1 mM DTT, 1% DMSO, and 20 μg/mL activated DNA). The solution was inoculated for 20 min at room temperature and the reaction was initiated by adding [adenylate-^32P]-Nicotinamide Adenine Dinucleotide, ^32P-NAD^+ at a final concentration of 10 μM. After incubation for 2 hrs at room temperature, the reaction mixture was filtered and washed with 0.75% phosphoric acid for radioactivity detection. b. AR binding assay: AR in LNCaP cytosol was used for determining the binding affinity of test articles and the reference compound—progesterone (Sigma, Cat: E2785, St. Louis, MO). IC50s were determined using 8 concentrations/compound. Cytosol was plated at 200 μg/well (100 μL) into a 96-well conical polypropylene plate (Agilent, Cat: 5042-1385, Santa Clara, CA) and mixed with 3 μL of test compound. After adding 100 μL of ^3H-methyltrienolone (PerkinElmer, Cat: NET590250UC, San Jose, CA), the plate was sealed and shaken at 300 rpm at 4° C. for 24 hours. Post incubation, 100 μL of radioligand adsorption buffer containing 10 mM Tris-HCl, pH 7.4; 1.5 mM EDTA; 1 mM DTT; 0.25% charcoal; 0.0025% dextran was added to individual well. Plate was shaken for 15 min at 4° C. followed by centrifugation at 3000 rpm for 30 min at 4° C. 150 μL of supernatant was transferred into scint-tube (PerkinElmer, Cat: 6000192) and mixed with 2 mL of Ultima Gold Cocktail (PerkinElmer, Cat: 6013329). Radioactivity was counted using a TriCarb 2910 TR scintillation counter (PerkinElmer). Inhibition of the radioactivity by test articles were calculated using the equation below: % Inhibition=(1−(Assay well-Average_LC)/(Average_HC-Average_LC))×100%. IC50 values were calculated and graphed using the model “log(inhibitor) vs. response—Variable slope” included in GraphPad Prism 5 (San Diego, CA). […] Ki=IC50/(1+[L]/Kd) c.

Human recombinant PARP1 = Human recombinant PARP1 (Homo sapiens (Human), UniProt P09874); experiment: RBC HotSpot PARP1 radioisotope-based filter binding assay; settings: read-out: PARP1 IC50; 2.5 nM PARP1, histone H4, 10 μM 32P-NAD+
Human recombinant PARP1, sequence (P09874 whole entry): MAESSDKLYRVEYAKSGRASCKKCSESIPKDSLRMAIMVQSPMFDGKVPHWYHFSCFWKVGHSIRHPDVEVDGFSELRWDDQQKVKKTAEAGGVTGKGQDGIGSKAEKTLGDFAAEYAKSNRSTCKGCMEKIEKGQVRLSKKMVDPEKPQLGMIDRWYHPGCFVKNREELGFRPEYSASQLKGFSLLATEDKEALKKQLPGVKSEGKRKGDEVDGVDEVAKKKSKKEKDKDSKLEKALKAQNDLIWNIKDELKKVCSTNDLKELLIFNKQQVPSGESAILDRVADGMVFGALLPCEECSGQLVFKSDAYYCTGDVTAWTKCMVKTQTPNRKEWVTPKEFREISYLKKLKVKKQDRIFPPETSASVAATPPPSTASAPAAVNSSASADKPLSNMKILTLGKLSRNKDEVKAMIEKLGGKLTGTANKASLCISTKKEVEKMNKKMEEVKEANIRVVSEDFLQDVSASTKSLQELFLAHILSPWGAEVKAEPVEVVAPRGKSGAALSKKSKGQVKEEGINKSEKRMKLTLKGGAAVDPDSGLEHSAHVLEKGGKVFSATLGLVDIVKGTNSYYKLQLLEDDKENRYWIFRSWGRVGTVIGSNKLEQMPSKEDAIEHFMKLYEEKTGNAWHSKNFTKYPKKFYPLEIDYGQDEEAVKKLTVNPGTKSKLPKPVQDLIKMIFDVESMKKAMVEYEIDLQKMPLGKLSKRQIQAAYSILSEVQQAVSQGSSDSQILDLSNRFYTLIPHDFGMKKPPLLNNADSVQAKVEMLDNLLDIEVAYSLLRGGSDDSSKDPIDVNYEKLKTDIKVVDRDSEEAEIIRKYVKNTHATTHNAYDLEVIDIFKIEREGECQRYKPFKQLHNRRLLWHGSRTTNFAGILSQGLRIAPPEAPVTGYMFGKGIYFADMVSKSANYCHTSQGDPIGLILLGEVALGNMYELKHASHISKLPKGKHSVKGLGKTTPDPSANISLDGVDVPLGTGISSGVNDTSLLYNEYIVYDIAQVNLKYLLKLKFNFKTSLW
Description: as §3

AR in LNCaP cytosol = AR in LNCaP cytosol (Homo sapiens (Human), UniProt P10275, T878A); experiment: AR binding assay (3H-methyltrienolone displacement); settings: read-out: AR IC50, 4° C. for 24 hours
AR in LNCaP cytosol, sequence (P10275 whole entry T878A, the tested form may be a part): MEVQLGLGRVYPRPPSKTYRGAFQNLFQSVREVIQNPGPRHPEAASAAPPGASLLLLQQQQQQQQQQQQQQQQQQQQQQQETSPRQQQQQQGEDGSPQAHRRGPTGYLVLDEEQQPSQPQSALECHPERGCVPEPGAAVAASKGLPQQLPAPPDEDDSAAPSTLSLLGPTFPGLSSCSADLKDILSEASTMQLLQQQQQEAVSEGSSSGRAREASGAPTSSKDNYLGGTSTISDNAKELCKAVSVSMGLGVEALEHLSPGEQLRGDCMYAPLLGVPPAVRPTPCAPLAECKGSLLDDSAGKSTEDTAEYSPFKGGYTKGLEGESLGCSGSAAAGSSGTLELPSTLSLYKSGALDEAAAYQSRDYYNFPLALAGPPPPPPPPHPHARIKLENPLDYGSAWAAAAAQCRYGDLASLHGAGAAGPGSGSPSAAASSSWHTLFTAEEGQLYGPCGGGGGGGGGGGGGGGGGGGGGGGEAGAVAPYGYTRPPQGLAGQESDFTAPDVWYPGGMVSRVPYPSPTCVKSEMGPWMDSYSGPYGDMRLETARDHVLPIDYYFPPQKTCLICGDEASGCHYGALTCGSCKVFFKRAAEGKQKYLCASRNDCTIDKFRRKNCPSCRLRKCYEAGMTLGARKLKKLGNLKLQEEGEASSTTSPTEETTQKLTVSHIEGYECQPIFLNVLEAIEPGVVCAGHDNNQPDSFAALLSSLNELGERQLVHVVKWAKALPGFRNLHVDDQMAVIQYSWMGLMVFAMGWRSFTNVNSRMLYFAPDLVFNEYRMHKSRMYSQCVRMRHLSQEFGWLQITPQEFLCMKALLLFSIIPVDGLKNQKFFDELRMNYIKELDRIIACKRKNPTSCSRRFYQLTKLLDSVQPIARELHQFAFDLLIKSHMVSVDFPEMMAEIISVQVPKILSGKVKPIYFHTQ
Description: as §3

ER Alpha-LBD (GST) = ER Alpha-LBD (GST) (Homo sapiens (Human), UniProt P03372); experiment: LanthaScreen TR-FRET ER Alpha Competitive Binding Assay; settings: Fluormone ES2 Green tracer displacement; for IC50: read-out: ERα IC50
ER Alpha-LBD (GST), sequence (P03372 311-547): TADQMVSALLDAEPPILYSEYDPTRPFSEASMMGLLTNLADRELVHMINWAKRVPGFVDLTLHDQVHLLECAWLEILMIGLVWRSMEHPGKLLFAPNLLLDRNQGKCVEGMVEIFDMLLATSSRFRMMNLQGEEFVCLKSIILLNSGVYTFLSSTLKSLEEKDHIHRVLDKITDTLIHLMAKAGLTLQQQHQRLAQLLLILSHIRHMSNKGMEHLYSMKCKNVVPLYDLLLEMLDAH
Description: e. Additional cell proliferation assays: Other cancer cell lines are tested in a cell proliferation assay. For example, LnCaP, PC-3, MCF-7, HCC1428, BT474, HCT-116, SK-OV-3 or OVCAR3 cancer cells are tested. Cells are cultured in medium recommended by the supplier (e.g., ATCC or JCRB Cell Bank), at 37° C. in a 5% CO2 environment. For the proliferation assay, cells are plated in the growth medium in 96 well plates. Seeding density is adjusted according to the cell type. 24 hr later, cells are treated, in triplicate or quadruplicate, with test articles prepared in a range of concentrations by series dilution of DMSO stock solutions in growth medium, and typically incubated for three to seven days, with test article-containing medium replaced after three or four days. The number of viable cells is measured using CellTiter Glo assay (CTG, Promega, Madison, WI) or similar. Cell viability data are plotted using GraphPad Prism (GraphPad Software, Inc., San Diego, CA). In addition, a nonlinear regression model with a sigmoidal dose response and variable slope within GraphPad Prism is used to calculate the IC50 value of individual test articles. Similarly, HEK-293 and HeLa calls can also be tested by methods known in the art. f. Nuclear translocation: LNCaP cells are plated on coverslips in 24 well plates in growth medium. Twenty-four hours after plating, medium is changed to RPMI+1% csFBS and the cells are maintained in this medium for two days. Medium is replaced again and the cells are treated. Cells are fixed 4 hours after treatment and the AR immunostained using AR N20 antibody (Santa Cruz Biotechnology, Santa Cruz, CA). Nucleus is stained with DAPI. Cells are imaged with a confocal microscope. g. ER binding assay: ERα binding was assessed by the LanthaScreen® TR-FRET ER Alpha Competitive Binding Assay at Thermo Fisher. In this assay, a terbium-labeled anti-GST antibody was used to indirectly label GST-tagged ER Alpha-ligand binding domain (LBD) by binding to its GST tag. Competitive binding to the ER Alpha-LBD (GST) was detected by a test compound's ability to displace a fluorescent ligand (Fluormone™ ES2 Green tracer) from the ER Alpha-LBD (GST), which results in a loss of FRET signal between the Tb-anti-GST antibody and the tracer. When running the assay, Fluormone™ ES2 Green tracer was added to ligand test compounds or solvent controls followed by addition of a mixture of the ER Alpha-LBD (GST) and terbium anti-GST antibody. After an incubation period at room temperature, the TR-FRET ratio of 520:495 emissions were calculated and used to determine the IC50 from a dose response curve of the compound. ER and PR functional assays: COS cells are transfected with 25 ng rat progesterone receptor (PR) and 250 ng GRE-LUC or 50 ng human estrogen receptor a (ER) and 250 ng ERE-LUC. Cells are also transfected with 10 ng CMV-renilla LUC in OptiMEM medium using lipofectamine transfection reagent. Twenty-four hours after transfection medium is changed to DME+5% csFBS w/o and treated with compounds in the presence of 0.1 nM progesterone for PR and estradiol for ER. Twenty four hours after treatment, cells are harvested and luciferase assay is performed using dual luciferase assay kit. The firefly values are normalized to renilla luciferase values and represented as a ratio. i. Evaluation of test compound in mouse xenograft model: To examine the in vivo antitumor activity of test compound, tumor growth experiments are performed in a cell line xenograft model. Male NOD SCID Gamma (NSG) mice are housed as five animals per cage and are allowed free access to water and commercial rodent chow. 22RV1 cells (grown in RPMI+10% FBS) mixed with 50% matrigel basement membrane are implanted subcutaneously in castrated mice. Alternatively, an antiandrogen resistant cell line other than 22RV1, such as MR49F or VCaP, is used. Once the tumors reach 200-500 mm^3, the animals are randomized and treated intraperitoneally with vehicle (DMSO:PEG-300:corn oil 10:30:60 ratio) or test compound. […]

SMILES	IC50 (HT-29 cells) [µM]	IC50 (22RV1 cells) [µM]	IC50 (Human recombinant PARP2) [nM]	IC50 (Human recombinant PARP1) [nM]	IC50 (AR in LNCaP cytosol) [µM]	IC50 (ER Alpha-LBD (GST)) [nM]	Ki (ER Alpha-LBD (GST); read-out: ERα Ki) [nM]
Cn1ncnc1[C@@H]1c2n[nH]c(=O)c3cc(F)cc(c23)N[C@H]1c1ccc(N2C(=S)N(c3ccc(C#N)c(C(F)(F)F)c3)C(=O)C2(C)C)cc1 [Compound 1.2b, 4-(3-(4-((8R,9S)-5-fluoro-9-(1-methyl-1H-1,2,4-triazol-5-yl)-3-oxo-3,7,8,9-tetrahydro-2H-pyrido[4,3,2-de]phthalazin-8-yl)phenyl)-4,4-dimethyl-5-oxo-2-thioxoimidazolidin-1-yl)-2-(trifluoromethyl)benzonitrile]	> 10	> 10	20	–	–	–	–
Cn1ncnc1[C@@H]1c2n[nH]c(=O)c3cc(F)cc(c23)N[C@H]1c1ccc(OC[C@](C)(O)C(=O)Nc2ccc(C#N)c(C(F)(F)F)c2)cc1 [Compound 1.1b, (S)—N-(4-cyano-3-(trifluoromethyl)phenyl)-3-(4-((8R,9S)-5-fluoro-9-(1-methyl-1H-1,2,4-triazol-5-yl)-3-oxo-3,7,8,9-tetrahydro-2H-pyrido[4,3,2-de]phthalazin-8-yl)phenoxy)-2-hydroxy-2-methylpropanamide]	> 10	> 10	30	60	–	–	–
Cn1ncnc1[C@H]1c2n[nH]c(=O)c3cc(F)cc(c23)N[C@@H]1c1ccc(N2C(=S)N(c3ccc(C#N)c(C(F)(F)F)c3)C(=O)C2(C)C)cc1 [Compound 1.2a, 4-(3-(4-((8S,9R)-5-fluoro-9-(1-methyl-1H-1,2,4-triazol-5-yl)-3-oxo-3,7,8,9-tetrahydro-2H-pyrido[4,3,2-de]phthalazin-8-yl)phenyl)-4,4-dimethyl-5-oxo-2-thioxoimidazolidin-1-yl)-2-(trifluoromethyl)benzonitrile]	> 10	> 10	0.3	–	> 3.75	–	–
CC/C(=C(/c1ccc(OCCCCCC(=O)N2CCN(C(=O)c3cc(Cc4n[nH]c(=O)c5ccccc45)ccc3F)CC2)cc1)c1ccc2[nH]ncc2c1)c1ccc(Cl)cc1F [Compound 2.49, (E)-4-(3-(4-(6-(4-(2-(4-chloro-2-fluorophenyl)-1-(1H-indazol-5-yl)but-1-en-1-yl)phenoxy)hexanoyl)piperazine-1-carbonyl)-4-fluorobenzyl)phthalazin-1(2H)-one]	–	–	9	204	–	4.4	–
CC/C(=C(/c1ccc(OCCCCCCN2CCN(C(=O)c3cc(Cc4n[nH]c(=O)c5ccccc45)ccc3F)CC2)cc1)c1ccc2[nH]ncc2c1)c1ccc(Cl)cc1F [Compound 2.52, (E)-4-(3-(4-(6-(4-(2-(4-chloro-2-fluorophenyl)-1-(1H-indazol-5-yl)but-1-enyl)phenoxy)hexyl)piperazine-1-carbonyl)-4-fluorobenzyl)phthalazin-1(2H)-one]	–	–	29	187	–	5.3	–
Cn1ncnc1[C@H]1c2n[nH]c(=O)c3cc(F)cc(c23)N[C@@H]1c1ccc(OC[C@](C)(O)C(=O)Nc2ccc(C#N)c(C(F)(F)F)c2)cc1 [Compound 1.1a, (S)—N-(4-cyano-3-(trifluoromethyl)phenyl)-3-(4-((8S,9R)-5-fluoro-9-(1-methyl-1H-1,2,4-triazol-5-yl)-3-oxo-3,7,8,9-tetrahydro-2H-pyrido[4,3,2-de]phthalazin-8-yl)phenoxy)-2-hydroxy-2-methylpropanamide]	> 10	> 10	> 1000	> 1000	–	–	–
CC/C(=C(/c1ccc(OCCCOCC(=O)N2CCN(C(=O)c3cc(Cc4n[nH]c(=O)c5ccccc45)ccc3F)CC2)cc1)c1ccc2[nH]ncc2c1)c1ccc(Cl)cc1F [Compound 2.53, (E)-4-(3-(4-(2-(3-(4-(2-(4-chloro-2-fluorophenyl)-1-(1H-indazol-5-yl)but-1-enyl)phenoxy)propoxy)acetyl)piperazine-1-carbonyl)-4-fluorobenzyl)phthalazin-1(2H)-one]	–	–	6	95	–	3.4	–
CC1(C)C(=O)N(c2ccc(C#N)c(C(F)(F)F)c2)C(=S)N1C1CCN(C(=O)c2cc(Cc3n[nH]c(=O)c4ccccc34)ccc2F)CC1 [Compound 1.3, 4-(3-(1-(2-fluoro-5-((4-oxo-3,4-dihydrophthalazin-1-yl)methyl)benzoyl)piperidin-4-yl)-4,4-dimethyl-5-oxo-2-thioxoimidazolidin-1-yl)-2-(trifluoromethyl)benzonitrile]	–	–	0.6	3	–	–	–
C[C@H]1Cc2c([nH]c3ccccc23)[C@H](c2c(F)cc(OCCN3CCN(C(=O)c4cc(Cc5n[nH]c(=O)c6ccccc56)ccc4F)CC3)cc2F)N1CC(C)(C)F (stereo in doubt) [Compound 2.51, 4-(3-(4-(2-(3,5-difluoro-4-((1S,3S)-2-(2-fluoro-2-methylpropyl)-3-methyl-2,3,4,9-tetrahydro-1H-pyrido[3,4-b]indol-1-yl)phenoxy)ethyl)piperazine-1-carbonyl)-4-fluorobenzyl)phthalazin-1(2H)-one]	–	–	4	28	–	44	–
C[C@@H]1Cc2c([nH]c3ccccc23)[C@@H](c2c(F)cc(OCCCCCC(=O)N3CCN(C(=O)c4cc(Cc5n[nH]c(=O)c6ccccc56)ccc4F)CC3)cc2F)N1CC(C)(C)F [Compound 2.50, 4-(3-(4-(6-(3,5-difluoro-4-((1R,3R)-2-(2-fluoro-2-methylpropyl)-3-methyl-2,3,4,9-tetrahydro-1H-pyrido[3,4-b]indol-1-yl)phenoxy)hexanoyl)piperazine-1-carbonyl)-4-fluorobenzyl)phthalazin-1(2H)-one]	–	–	3	21	–	5.7	–
CC/C(=C(/c1ccc(OCCCOCCN2CCN(C(=O)c3cc(Cc4n[nH]c(=O)c5ccccc45)ccc3F)CC2)cc1)c1ccc2[nH]ncc2c1)c1ccc(Cl)cc1F [Compound 2.54, (E)-4-(3-(4-(2-(3-(4-(2-(4-chloro-2-fluorophenyl)-1-(1H-indazol-5-yl)but-1-enyl)phenoxy)propoxy)ethyl)piperazine-1-carbonyl)-4-fluorobenzyl)phthalazin-1(2H)-one]	–	–	5	40	–	64.1	34.5
